Tests used:
U2OS-SCR reporter cells = assay: HR/SCR reporter assay (GFP-positive cells by flow cytometry and fluorescence microscopy); format: cell-based; details: for number of GFP-positive cells (HR repair of DSB): U2OS-SCR cells transfected with SceI 24 hours, then treated 24 hours, CO 250 ppm; for CO-mediated HR (GFP-positive cells) under ATM/ATR blockade: inhibitor 20 μM 1 hour prior to CO 250 ppm for 24 hours
Excerpt: To test this, the U20S cell line containing the HR/SCR (homologous recombination/sister chromatid recombination) reporter was used as previously described (12,13). I-SceI endonuclease was used to introduce a double strand break (DSB) within the reporter in U2OS cells. The efficiency of homologous recombination induced by I-SceI correlated with generation of wild type GFP by gene conversion.
(§1) Many of the effects observed with HO-1 are mediated by one or more of its enzymatic products biliverdin or CO. Therefore, the role of biliverdin and CO was tested separately in HR during DSB and DNA repair. U2OS-SCR reporter cells after transfection with SceI for 24 hours were treated with CO 250 (ppm) for 24 hours. […] No effects of CO were observed on NHEJ-mediated DNA repair as measured by number of XHATM-resistant colonies.
(§2) Lysates of PC3 and HEK cells were treated with CO (250 ppm) for 2′ to 1 h. […] Therefore, the two major DNA repair kinases, ATM and ATR, were examined to see if they are implicated in accelerated HR in the presence of CO or HO-1. […] U20S-SCR reporter cells were transfected with SceI for 24 hours and treated with CGK733 (20 μM) or DMSO for 1 hour prior treatment with CO (250 ppm) for 24 hours. U20S-SCR reporter cells were co-transfected with SceI for 24 hours and KU55933 (20 μM) or DMSO for 1 hour prior treatment with CO (250 ppm) was applied for following 24 hours. […] U20S-SCR reporter cells were co-transfected with SceI and HO-1 for 24 hours and CGK733 was applied for following 24 hours.
(§3) U203 HR/SCR cells were maintained in the DMEM medium (Gibco, Invitrogen) containing 10% FBS and antibiotics. pPHW1 cells (NHEJ model) were maintained in the DMEM medium with 10% FBS and antibiotics. Mouse kidney fibroblasts were obtained from adult Hmox1^−/− and Hmox1^+/+ mice and culture between passages 4-7 in DMEM medium supplemented with 10% FBS and antibiotics. HEK293 were purchased from ATCC and were cultured following manufacturer's protocol. For CO in vitro studies, cells were exposed to 250 ppm CO, 5% CO2 in […] for 2 minutes to 24 hours. Cells were irradiated with 10 Gy and harvested at different time points after single exposure.
HR/SCR reporter U20S cells were used as previously described. Briefly, GFP+ cells were analyzed 2 days postransfection by flow cytometry (FACScan, BD Biosciences) and fluorescence microscopy. Images of GFP-positive cells were captured of randomized fields using a Zeiss Apotome fluorescent microscope.

irradiated mice = assay: Radiation-induced model of DNA damage (lethal irradiation, 10 Gy); format: in vivo
Experimental: To support the observations with chemical genotoxins, a radiation-induced model of DNA damage was also used. Endogenous HO-1 is induced early in response to IR or doxorubicin and its expression is sustained for 24-72 hours in the spleen, liver and kidney (FIGS. 7A-B). Kidneys and spleen were harvested after 2 hours after irradiation. To evaluate the role of exogenous CO, mice were pretreated with CO for 1 hour prior to either a lethal or sublethal dose of irradiation and then daily for 1 hour. Spleens and intestines of mice were pretreated with Air or CO (250 ppm) 1 hour prior lethal dose of irradiation (10 Gy) and treated daily with CO for 11 days. […] Tissues were harvested 2 hours after irradiation. To evaluate the role of H2AX signaling in CO effects on DNA repair, marginal bone marrow transplantation of BM cells from H2ax^−/− and H2ax^+/+ mice into wild type irradiated recipients was used. Mice were treated with CO prior lethal dose of irradiation (10 Gy) and thereafter after receiving BM.
Male C57BL/6 mice 7-9 weeks of age were purchased from Jackson Laboratories (Bar Harbor, Me.). Mice were held under SPF conditions and the experiments were approved by the IACUC at BIDMC. Mice were irradiated with 10 Gy (lethal dose) or 5 Gy (sublethal dose) and the protocol was approved by Radiation Safety Officer at BIDMC and the IACUC. Mice were exposed in plexiglass chamber to CO for 1 hour, 250 ppm prior irradiation and thereafter every day for 1 hour.
Mice were lethally irradiated and transplanted with […] i.v. immediately after irradiation. The amount of injected BM was sufficient for recovery of 40% mice.

[1] = tested on: lung and intestine gene expression; assay: Gene expression in tissues of mice exposed to inhaled CO (real time PCR); format: in vivo
Experimental: This is important given that the lung has such a high rate of cellular turnover. The increase in expression of these genes is associated with decreased senescence and extension of life span.
Male C57Bl/6 mice were exposed to inhaled carbon monoxide at 250 parts per million (ppm) for 1 hour. […] Real time PCR for telomerase in lungs, and topoisomerase (responsible for unwinding of DNA) and p16 (cell cycle suppressor) in intestines was performed, and expression was compared to air-exposed controls (FIG. 10). Results represent mean±SD of at least 3 mice/group, * p<0.05.

H2AXγ foci in tissues = assay: DNA damage (H2AXγ foci) in tissues of nude mice with PC3 tumors treated with doxorubicin ± CO; format: in vivo
Experimental: Based on the effects observed in vitro, the salutary effects of CO were tested in an in vivo model of DNA damage in mice. Tissues were harvested 14 days after treatment of nude mice with established PC3 tumors (2 weeks) with […] (Control) or doxorubicin (8 mg/kg, twice per week, i.v.)±CO (daily, 1 hour, 250 ppm). Doxorubicin was employed to induce DNA damage in the tissues during chemotherapeutic treatment of tumor xenografts in nude mice.
Nu/nu mice were purchased from Taconic (Hudson, N.Y.) at 7 weeks of age. Those mice were used in a complementary experiment of a subcutaneous tumor model of PC3 cells injected into the right flank of mice. Doxorubicin (8 mg/kg, Sigma) was given i.v. twice per week and mice were exposed to CO daily (250 ppm for 1 hour). Tissues were harvested after 2 weeks of treatment.

HEK cells = assay: Immunoblot of DNA repair signaling after CO exposure; format: cell-based; details: CO 250 ppm, 2 minutes to 1 h
Experimental: as §2, §3

pPHW1 cells (NHEJ model) = assay: NHEJ-mediated DNA repair (number of XHATM-resistant colonies); format: cell-based
Experimental: as §1, §3

HEK293 cells = assay: Western blot of DNA repair signaling in HEK293 cells treated with genotoxins; format: cell-based; details: 2 min to 2 h
Experimental: The direct effects of HO-1 was tested on signaling pathways in response to the DNA damaging agents, doxorubicin, camptothecin, or irradiation in loss and gain of function studies with HO-1. HEK293cells express high basal levels of HO-1 due to presence of large T antigen. HEK293 cells were transduced with micro-adapted shRNA to stably deplete HO-1 and then exposed to camptothecin, doxorubicin or irradiation. HEK293 cells with stable knockdown of HO-1 (mirHO-1) and control cells were treated with camptothecin (1 μg/ml) for 2′-2 h. The levels of HO-1 and DNA repair signaling proteins activation was measured by Western blot.
The status of the major DNA repair kinases, ATR, and ATM and their downstream targets was evaluated in HEK293 cells treated with camptothecin.
HEK mirHO-1 and control cells treated with doxorubicin (10 μg/ml) for 2′-2 h is shown. […] Akt is a loading control for the immunoblot for P-p53.

[2] = tested on: fibroblasts from Hmox1+/+ and Hmox1−/− mice; assay: H2AX phosphorylation / γ-H2AX foci in mouse fibroblasts treated with genotoxins; format: cell-based; details: doxorubicin 10 μg/ml, camptothecin 1 μg/ml; for phosphorylation of histone H2AX and γ-H2AX foci: Hmox+/+ fibroblasts
Experimental: Representative pictures are shown from at least two independent experiments in duplicates. Fibroblasts were treated with doxorubicin (10 μg/ml) for 2-4 hr.
as §3

[3] = CO 250 ppm 1 hour, harvested immediately, versus air
[4] = CO 1 hour, harvested at 24 hours

C=CC1=C(C)/C(=C/C2=NC(=C\c3[nH]c(/C=C4\NC(=O)C(C)=C4C=C)c(C)c3CCC(=O)O)/C(CCC(=O)O)=C2C)NC1=O [Biliverdin, biliverdin]
number of GFP-positive cells (HR repair of DSB) (U2OS-SCR reporter cells): no effect

O=C(NC(NC(=S)Nc1ccc(F)c([N+](=O)[O-])c1)C(Cl)(Cl)Cl)C(c1ccccc1)c1ccccc1 (centres unmarked) [CGK733]
HO-1-induced HR (GFP-positive cells) in presence of inhibitor (U2OS-SCR reporter cells; co-transfected with SceI and HO-1 for 24 hours, inhibitor applied following 24 hours): did not increase HR
CO-mediated HR (GFP-positive cells) under ATM/ATR blockade (U2OS-SCR reporter cells): significantly decreased

[C-]#[O+] [CO, carbon monoxide]
sustained H2AXγ foci formation in spleen and intestine (irradiated mice; CO 250 ppm 1 hour prior to 10 Gy, then daily for 11 days): significant inhibition
P-p53, P-Brca1, P-ATM and early P-H2AX in peripheral blood mononuclear cells and bone marrow (irradiated mice; CO 1 hour prior to irradiation, tissues harvested 2 hours after irradiation, versus air): strong induction
survival rate, mice alive >10 days (irradiated mice; lethal irradiation, CO 250 ppm 1 hour prior and daily, n=6/group, p=0.031 versus air (50%)): 80%
CO-mediated protection against irradiation-induced death with H2ax−/− donor BM (irradiated mice; marginal bone marrow transplantation into wild type recipients irradiated with 10 Gy): reversed
expression of p16 in intestines [1, 3]: increases expression
expression of telomerase in lungs [1, 3]: increases expression
expression of topoisomerase in intestines [1, 3]: increases expression
expression of SIRT1 in the lung [1, 4]: increased expression
expression of TERT in the lung [1, 4]: increased expression
number of GFP-positive cells (HR repair of DSB) (U2OS-SCR reporter cells): significantly increased
severity of doxorubicin-induced DNA damage (H2AXγ) in all organs (H2AXγ foci in tissues; CO daily, 1 hour, 250 ppm, with doxorubicin): significantly decreased
phosphorylation of Brca1, ATR and ATM (HEK cells): induced rapid phosphorylation
NHEJ-mediated DNA repair, number of XHATM-resistant colonies (pPHW1 cells (NHEJ model)): No effects

COc1cccc2c1C(=O)c1c(O)c3c(c(O)c1C2=O)C[C@@](O)(C(=O)CO)C[C@@H]3O[C@H]1C[C@H](N)[C@H](O)[C@H](C)O1 [Doxorubicin, doxorubicin]
phosphorylation of ATM, p53 and H2AX (HEK293 cells; HEK293 cells, doxorubicin 10 μg/ml): increase
DNA damage by accumulation of H2AXγ foci (H2AXγ foci in tissues; doxorubicin 8 mg/kg i.v. twice per week, 14 days, lung, liver, kidney and colon): substantial DNA damage
γ-H2AX foci formation ([2]; Hmox1−/− fibroblasts): no γ-H2AX foci formation
phosphorylation of histone H2AX and γ-H2AX foci [2]: strong increase

O=c1cc(-c2cccc3c2Sc2ccccc2S3)oc(N2CCOCC2)c1 [KU55933]
CO-mediated HR (GFP-positive cells) under ATM/ATR blockade (U2OS-SCR reporter cells): significantly decreased

CC[C@@]1(O)C(=O)OCc2c1cc1n(c2=O)Cc2cc3ccccc3nc2-1 [camptothecin]
phosphorylation of H2AX (HEK293 cells; wild-type HEK293 cells, camptothecin 1 μg/ml): induced phosphorylation
phosphorylation of histone H2AX and γ-H2AX foci [2]: strong increase

From patent US9987302B2, “Methods of treating DNA damage” (priority 2011, dated 2018)
